# Laboratory results taken from PubChem BioAssay (NCI).
# Several values for one entry are separate records, joined by “and”; a condition that tells them apart may be missing. Equal entries are not always repeated.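 In this assay, cells in 96-well plates receive the compound at five concentrations for 48 hours. Endpoints are linearly interpolated between the surrounding concentrations. GI50 = concentration required for 50% inhibition of growth. The concentration for full growth arrest is given as TGI.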
# Experiments:
# Assay in all cases: DTP human tumour cell line panel, 48 h
# 786-0 renal = test system: 786-0 renal
# ACHN renal = test system: ACHN renal
# KM12 colon = test system: KM12 colon
# OVCAR-4 ovarian = test system: OVCAR-4 ovarian
# OVCAR-5 ovarian = test system: OVCAR-5 ovarian
# T-47D breast = test system: T-47D breast
# UACC-62 melanoma = test system: UACC-62 melanoma
# UO-31 renal = test system: UO-31 renal
# HCC-2998 colon = test system: HCC-2998 colon
# SW-620 colon = test system: SW-620 colon
Compound,GI50 (786-0 renal),TGI (786-0 renal),GI50 (ACHN renal),TGI (ACHN renal),GI50 (KM12 colon),TGI (KM12 colon),GI50 (OVCAR-4 ovarian),TGI (OVCAR-4 ovarian),GI50 (OVCAR-5 ovarian),TGI (OVCAR-5 ovarian),GI50 (T-47D breast),TGI (T-47D breast),GI50 (UACC-62 melanoma),TGI (UACC-62 melanoma),GI50 (UO-31 renal),TGI (UO-31 renal),GI50 (HCC-2998 colon),TGI (HCC-2998 colon),GI50 (SW-620 colon),TGI (SW-620 colon)
Cl.Fc1c[c-]c(-c2ccccn2)c(F)c1.[Pt].c1ccc([PH+](CC[PH+](c2ccccc2)c2ccccc2)c2ccccc2)cc1,0.231 µM,1.06 µM,0.271 µM,0.993 µM,0.0772 µM,0.277 µM,0.187 µM,1.01 µM,0.178 µM,0.919 µM,0.0912 µM,1.39 µM,0.128 µM,0.364 µM,0.254 µM,0.93 µM,–,–,–,–
O=C(Nc1ccncc1)C(=O)c1cn(S(=O)(=O)c2ccccc2F)c2ccccc12,4.95 µM,40.9 µM,5.21 µM,> 70.9 µM,0.837 µM,> 100 µM,3.59 µM,> 100 µM,5.38 µM,98.2 µM,2.53 µM,> 87.1 µM,0.708 µM,> 36.4 µM,3.66 µM,> 95 µM,5.36 µM,> 100 µM,1.44 µM,> 100 µM
CCc1oc2ccccc2c1C(=O)c1cc(Br)c(O)c(Br)c1,–,55.6 µM,–,31.3 µM,–,55.1 µM,–,> 100 µM,–,46.1 µM,–,53.6 µM,–,33.6 µM,–,40.1 µM,–,–,–,> 100 µM
Cc1cc(-c2nc3ccc(O)cc3s2)ccc1N,29.2 µM,> 100 µM,53.9 µM,> 100 µM,57.9 µM,> 100 µM,37.2 µM,> 100 µM,82.6 µM,> 100 µM,22.6 µM,> 100 µM,57.7 µM,> 100 µM,21.6 µM,> 100 µM,> 100 µM,> 100 µM,66.8 µM,> 100 µM
O=C(CNC(=O)c1cccc2ccccc12)Nc1ccccc1Oc1ccccc1,0.449 µM,> 10 µM,0.833 µM,> 10 µM,0.289 µM,> 10 µM,4.54 µM,> 10 µM,0.521 µM,> 10 µM,0.542 µM,> 10 µM,0.177 µM,> 10 µM,0.643 µM,> 10 µM,0.712 µM,> 10 µM,0.283 µM,> 10 µM
COc1cc2c(OC)c(c1)CCCC1=CC(=O)C=C(CCC2)C1=O,–,> 55.1 µM,–,> 100 µM,–,59.6 µM,–,31.1 µM,–,> 100 µM,–,43.5 µM,–,> 100 µM,–,> 100 µM,–,> 100 µM,–,> 77 µM
Cc1nc(NC(=S)Nc2ccc(F)cc2)sc1C(=O)NNC(=S)Nc1ccc(F)cc1,21.9 µM,89.1 µM,–,–,3.11 µM,13.4 µM,5.55 µM,60 µM,16.2 µM,62.1 µM,2.59 µM,20.7 µM,3.01 µM,18.9 µM,5.28 µM,21 µM,6.6 µM,22.5 µM,10.6 µM,25.2 µM
C=C1C(=O)O[C@@H]2C[C@@H](C)[C@@H]3[C@@H](OC4OC(COC(C)=O)C(O)C(O)C4O)CC(=O)[C@@]3(C)C[C@H]12 (stereo not given in full),–,0.883 µM,–,0.987 µM,–,22.9 µM,–,12.5 µM,–,8.07 µM,–,8.89 µM,–,2.98 µM,–,3.38 µM,–,3.14 µM,–,1.61 µM
COc1cc(-c2cc(-c3nc4ccccc4[nH]3)[nH]n2)cc(OC)c1OC,3.66 µM,15.5 µM,2.77 µM,14.2 µM,3.15 µM,11.6 µM,1.26 µM,7.03 µM,13 µM,32.7 µM,1.11 µM,7.61 µM,1.64 µM,4.66 µM,2.21 µM,12.2 µM,7.1 µM,21.5 µM,7.73 µM,30.3 µM
Cc1cc(S(=O)(=O)NC#N)c(S/C(=N\Nc2ccc([N+](=O)[O-])cc2)c2ccccc2)cc1Cl,33.8 µM,> 100 µM,18 µM,41.5 µM,16.6 µM,30.2 µM,13.9 µM,31.8 µM,15.7 µM,32.4 µM,> 100 µM,> 100 µM,21.5 µM,51.8 µM,15.5 µM,36.7 µM,17.2 µM,30.9 µM,17.1 µM,30.8 µM
Cc1ccc(C(=O)N/N=C/c2cccc(Oc3ccccc3)c2)cn1,29.1 µM,> 100 µM,45.9 µM,> 100 µM,3.69 µM,> 100 µM,26.6 µM,> 100 µM,> 100 µM,> 100 µM,6.3 µM,> 74.3 µM,4.67 µM,> 100 µM,19.6 µM,> 100 µM,16.1 µM,> 100 µM,4.79 µM,> 100 µM
CN(C)CC#Cc1cccc(C(=O)c2cnn(-c3ccc(F)cc3)c2N)c1,> 25 µM,> 25 µM,> 25 µM,> 25 µM,> 25 µM,> 25 µM,> 17.4 µM,> 25 µM,> 25 µM,> 25 µM,11.3 µM,> 25 µM,> 25 µM,> 25 µM,> 25 µM,> 25 µM,> 25 µM,> 25 µM,> 25 µM,> 25 µM
CO/N=C1/NC(=O)/C(=C/c2ccc3ncccc3c2)S1,23.4 µM,> 25 µM,10.6 µM,> 25 µM,> 25 µM,> 25 µM,> 25 µM,> 25 µM,6.16 µM,> 25 µM,4.46 µM,> 20.2 µM,8.06 µM,> 25 µM,4.99 µM,> 22.7 µM,> 25 µM,> 25 µM,> 25 µM,> 25 µM
CN(/N=N/c1nc(OCc2ccccc2)c2[nH]cnc2n1)C(=O)N(C)/N=N/c1nc(OCc2ccccc2)c2[nH]cnc2n1,59.7 µM,> 100 µM,31.3 µM,> 100 µM,84.2 µM,> 100 µM,> 100 µM,> 100 µM,63.7 µM,> 100 µM,39.6 µM,> 100 µM,30.8 µM,> 100 µM,36.1 µM,> 100 µM,19.3 µM,81.6 µM,71.7 µM,> 100 µM
O=C(Nc1cc(Cl)ccc1O)c1cccc(NC2=C(Cl)C(=O)N(Cc3ccccc3)C2=O)c1,22.7 µM,50.9 µM,35.6 µM,> 100 µM,21.4 µM,52 µM,55.5 µM,> 100 µM,45.8 µM,> 100 µM,29 µM,> 100 µM,31.7 µM,> 100 µM,38.3 µM,> 100 µM,17 µM,32.1 µM,21.3 µM,49.9 µM
O=C(Nc1ccc(Nc2ccncc2)cc1)c1ccc(Nc2ccnc3ccc([N+](=O)[O-])cc23)cc1,> 100 µM,> 100 µM,> 100 µM,> 100 µM,> 100 µM,> 100 µM,> 100 µM,> 100 µM,> 100 µM,> 100 µM,> 100 µM,> 100 µM,68.1 µM,> 100 µM,–,–,> 100 µM,> 100 µM,> 100 µM,> 100 µM
c1cncc(C(Nc2cccc3cccnc23)Nc2cccc3cccnc23)c1,–,> 100 µM,–,> 100 µM,–,> 100 µM,–,–,–,> 100 µM,–,> 100 µM,–,> 100 µM,–,> 100 µM,–,> 100 µM,–,> 100 µM
CCN(CC)CCCC(C)Nc1cnc(C(=O)Nc2cc(F)cc3cccnc23)cn1 (stereo not given),8.17 µM and 1.33 µM,22 µM and 2.7 µM,2.81 µM and 0.683 µM,9.61 µM and 1.96 µM,6.09 µM and 1.78 µM,19.5 µM and 3.34 µM,2.24 µM and 0.35 µM,–,11 µM and 1.41 µM,23.1 µM and 2.91 µM,0.759 µM and 0.505 µM,20.2 µM and 5.18 µM,2.28 µM and 1.27 µM,5.5 µM and 2.69 µM,4.12 µM and 0.933 µM,17.1 µM and 2.23 µM,5.01 µM and 1.53 µM,18.4 µM and 2.97 µM,4.03 µM and 0.814 µM,15 µM and 2.62 µM
Fc1ccc(-c2nnc3sc(-c4cccc(Cl)c4)nn23)cc1Cl,> 100 µM,> 100 µM,> 100 µM,> 100 µM,> 100 µM,> 100 µM,> 100 µM,> 100 µM,> 100 µM,> 100 µM,> 100 µM,> 100 µM,> 100 µM,> 100 µM,> 100 µM,> 100 µM,> 100 µM,> 100 µM,> 100 µM,> 100 µM
Cc1cc2c(C(N)=O)cccc2n1-c1nc2c(c(NCc3ccccc3)n1)CCCN2,0.248 µM,0.519 µM,0.236 µM,0.791 µM,0.195 µM,0.4 µM,0.178 µM,0.396 µM,0.23 µM,0.585 µM,0.185 µM,0.431 µM,0.155 µM,0.33 µM,0.215 µM,0.474 µM,0.17 µM,0.325 µM,0.219 µM,0.507 µM
O=C(O)c1ccc(NS(=O)(=O)c2cccc3cccnc23)cc1,> 100 µM,> 100 µM,> 100 µM,> 100 µM,> 100 µM,> 100 µM,> 100 µM,> 100 µM,> 100 µM,> 100 µM,> 100 µM,> 100 µM,> 100 µM,> 100 µM,> 100 µM,> 100 µM,> 100 µM,> 100 µM,> 100 µM,> 100 µM
COc1cc(-c2cn(-c3ccc(Cl)cc3)c(=O)[nH]2)cc(OC)c1OC,> 100 µM,> 100 µM,> 100 µM,> 100 µM,> 100 µM,> 100 µM,> 100 µM,> 100 µM,> 100 µM,> 100 µM,> 100 µM,> 100 µM,> 100 µM,> 100 µM,> 100 µM,> 100 µM,> 100 µM,> 100 µM,> 100 µM,> 100 µM
O=c1[nH]nc2c3c(cccc13)NC(CN1Cc3ccccc3C1)=N2,6.62 µM,> 100 µM,4.92 µM,> 100 µM,4.41 µM,> 100 µM,5.77 µM,> 100 µM,5.73 µM,> 100 µM,5.27 µM,> 100 µM,4.44 µM,> 100 µM,4.79 µM,> 100 µM,4.35 µM,> 100 µM,7.03 µM,> 100 µM
c1cncc(CNc2ccccc2-c2nnc(Nc3ccc4c(c3)OCCO4)o2)c1,0.366 µM,> 100 µM,1.08 µM,> 100 µM,0.067 µM,1.86 µM,0.549 µM,42.5 µM,0.658 µM,> 100 µM,3.57 µM,60.2 µM,0.0522 µM,> 100 µM,4.69 µM,> 100 µM,0.255 µM,–,0.0576 µM,> 100 µM
C=C(CN1CCN(c2ccccc2F)CC1)c1ccc(C(=O)Nc2ccccc2N)cc1,1.88 µM,> 100 µM,2.77 µM,> 100 µM,1.53 µM,11.4 µM,5.01 µM,> 100 µM,1.29 µM,> 100 µM,3.84 µM,> 100 µM,1.16 µM,18.3 µM,1.32 µM,17.3 µM,3.2 µM,17.7 µM,1.97 µM,> 100 µM
NC1CCC[C@@H](O)[C@H]1O (stereo not given in full),–,> 100 µM,–,> 100 µM,–,> 100 µM,–,–,–,> 100 µM,–,> 100 µM,–,> 100 µM,–,> 100 µM,–,> 100 µM,–,> 100 µM
Cc1ccc2c(=O)[nH]sc2c1,–,15.4 µM,–,21.6 µM,–,–,–,> 100 µM,–,> 100 µM,–,41.8 µM,–,41.2 µM,–,–,–,36.9 µM,–,33.2 µM
